Assays:
Format in all cases: cell-based
[1] = system: A549 lung cancer cell line; test: CCK-8 proliferation inhibition; settings: concentration of 30 μM
In short: (§1)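 Plating at 2000 cells/well, then incubation overnight at 37° C. Next, a range of compound concentrations for 72 hours (control 1‰ DMSO). Finally, medium decanted and CCK-8 diluted 1:10 added.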

[2] = system: MGC-803 gastric cancer cell line; test: CCK-8 proliferation inhibition; settings: concentration of 30 μM
In short: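 Using media specific to each line (1640 for MGC-803 and Jurkat, F12 for PC3, DMEM high glucose for MCF-7, each with 10% newborn bovine serum), cells at 2000/well were treated for 72 h with serially formulated compounds, then assessed with CCK-8 diluted 1:10.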

[3] = system: BEL-7402 liver cancer cell line; test: CCK-8 proliferation inhibition; settings: concentration of 30 μM, 72 hours, 30 µM
In short: as §1

[4] = system: Enterococcus faecium (EFM); test: MIC, two-fold agar dilution (CLSI), clinical isolates
In short: (§2)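 Susceptibility was tested using CLSI two-fold agar dilution against the strains examined.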

[5] = system: methicillin-resistant Staphylococcus aureus (MRSA); test: as above
In short: as §2

[6] = system: Moraxella catarrhalis (BCA); test: as above
In short: as §2

[7] = system: Streptococcus pneoumoniae (SPN); test: as above
In short: as §2

[8] = system: methicillin-sensitive Staphylococcus epidermidis (MSSE); test: as above
In short: as §2

[9] = system: Escherichia coli (including ESBLs, non-ESBLs); test: as above
In short: as §2

[10] = system: Enterococcus faecalis (EFA); test: as above
In short: as §2

[11] = system: methicillin-resistant Staphylococcus epidermidis (MRSE); test: as above
In short: as §2

[12] = system: methicillin-sensitive Staphylococcus aureus (MSSA); test: as above
In short: as §2

[13] = system: HCT-116 colorectal cancer cell line; test: CCK-8 proliferation inhibition; settings: concentration of 30 μM; 72 hours; CCK-8; 30 µM
In short: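 Proliferation over 72 hours of compound treatment was measured with CCK-8 against a 1‰ DMSO control.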

O=C(C[C@@H](CC1CCCC1)C(=O)N1CC2(CC2)C[C@H]1C(=O)Nc1cnccn1)NO [Example 62]
79%: HCT116 inhibition rate/% [13]
0.25 µg/mL: Anti-bacterial activity (MIC), strain SPN 16-2 ([7]; clinical isolate SPN 16-2)
0.5 µg/mL: Anti-bacterial activity (MIC), strain EFM 15-5 ([4]; clinical isolate EFM 15-5) | Anti-bacterial activity (MIC), strain EFM 15-6 ([4]; clinical isolate EFM 15-6) | Anti-bacterial activity (MIC), strain MRSA 15-2 ([5]; clinical isolate MRSA 15-2) | Anti-bacterial activity (MIC), strain MRSA 15-3 ([5]; clinical isolate MRSA 15-3) | Anti-bacterial activity (MIC), strain MRSA 15-4 ([5]; clinical isolate MRSA 15-4) | Anti-bacterial activity (MIC), strain BCA 14-5 ([6]; clinical isolate BCA 14-5) | Anti-bacterial activity (MIC), strain SPN 16-4 ([7]; clinical isolate SPN 16-4) | Anti-bacterial activity (MIC), strain MSSE 15-3 ([8]; clinical isolate MSSE 15-3) | Anti-bacterial activity (MIC), strain MSSE 15-4 ([8]; clinical isolate MSSE 15-4) | Anti-bacterial activity (MIC), strain MSSE 15-5 ([8]; clinical isolate MSSE 15-5) | Anti-bacterial activity (MIC), strain MSSE 15-6 ([8]; clinical isolate MSSE 15-6) | Anti-bacterial activity (MIC), strain ECO+ 15-1 ([9]; clinical isolate ECO+ 15-1) | Anti-bacterial activity (MIC), strain ECO+ 15-2 ([9]; clinical isolate ECO+ 15-2) | Anti-bacterial activity (MIC), strain ECO+ 15-3 ([9]; clinical isolate ECO+ 15-3) | Anti-bacterial activity (MIC), strain ECO+ 15-4 ([9]; clinical isolate ECO+ 15-4) | Anti-bacterial activity (MIC), strain MRSE 15-3 ([11]; clinical isolate MRSE 15-3) | Anti-bacterial activity (MIC), strain MRSE 15-7 ([11]; clinical isolate MRSE 15-7) | Anti-bacterial activity (MIC), strain MSSA 15-3 ([12]; clinical isolate MSSA 15-3) | Anti-bacterial activity (MIC), strain MSSA 15-4 ([12]; clinical isolate MSSA 15-4)
75%: Inhibition of proliferation, Liver cancer BEL-7402 [3]
8 µg/mL: Anti-bacterial activity (MIC), strain EFA 15-9 ([10]; clinical isolate EFA 15-9)
64%: Inhibition of proliferation, Gastric cancer MGC-803 ([2]; 72 hours, 30 µM)
59%: Inhibition of proliferation, Lung cancer A549 ([1]; 72 hours, 30 µM)
> 50%: inhibition at 30 µM ([1]; Homo sapiens, A549, 72 h) | inhibition at 30 µM ([2]; Homo sapiens, MGC-803, 72 h)
16 µg/mL: Anti-bacterial activity (MIC), strain ECO− 15-1 ([9]; clinical isolate ECO− 15-1) | Anti-bacterial activity (MIC), strain ECO− 15-2 ([9]; clinical isolate ECO− 15-2) | Anti-bacterial activity (MIC), strain ECO− 15-3 ([9]; clinical isolate ECO− 15-3) | Anti-bacterial activity (MIC), strain ECO− 15-4 ([9]; clinical isolate ECO− 15-4) | Anti-bacterial activity (MIC), strain MRSE 15-1 ([11]; clinical isolate MRSE 15-1) | Anti-bacterial activity (MIC), strain MRSE 15-2 ([11]; clinical isolate MRSE 15-2) | Anti-bacterial activity (MIC), strain MSSA 15-5 ([12]; clinical isolate MSSA 15-5) | Anti-bacterial activity (MIC), strain MSSA 15-6 ([12]; clinical isolate MSSA 15-6)
0.125 µg/mL: Anti-bacterial activity (MIC), strain MRSA 15-1 ([5]; clinical isolate MRSA 15-1)
> 32 µg/mL: Anti-bacterial activity (MIC), strain EFM 15-1 ([4]; clinical isolate EFM 15-1) | Anti-bacterial activity (MIC), strain EFM 15-2 ([4]; clinical isolate EFM 15-2) | Anti-bacterial activity (MIC), strain EFM 15-3 ([4]; clinical isolate EFM 15-3) | Anti-bacterial activity (MIC), strain EFM 15-4 ([4]; clinical isolate EFM 15-4) | Anti-bacterial activity (MIC), strain EFA 15-1 ([10]; clinical isolate EFA 15-1) | Anti-bacterial activity (MIC), strain EFA 15-2 ([10]; clinical isolate EFA 15-2) | Anti-bacterial activity (MIC), strain EFA 15-3 ([10]; clinical isolate EFA 15-3) | Anti-bacterial activity (MIC), strain EFA 15-4 ([10]; clinical isolate EFA 15-4) | Anti-bacterial activity (MIC), strain EFA 15-5 ([10]; clinical isolate EFA 15-5) | Anti-bacterial activity (MIC), strain EFA 15-6 ([10]; clinical isolate EFA 15-6)
1 µg/mL: Anti-bacterial activity (MIC), strain BCA 14-10 ([6]; clinical isolate BCA 14-10)
2 µg/mL: Anti-bacterial activity (MIC), strain BCA 14-1 ([6]; clinical isolate BCA 14-1) | Anti-bacterial activity (MIC), strain BCA 14-4 ([6]; clinical isolate BCA 14-4) | Anti-bacterial activity (MIC), strain BCA 14-6 ([6]; clinical isolate BCA 14-6) | Anti-bacterial activity (MIC), strain BCA 14-7 ([6]; clinical isolate BCA 14-7) | Anti-bacterial activity (MIC), strain BCA 14-8 ([6]; clinical isolate BCA 14-8)

Reference: patent US10738028B2, “Spiro three-membered ring, spiro five-membered ring peptide deformylase inhibitor and use thereof in antibacteria and anti-tumor” (priority 2016, dated 2020)
